Assay results from the supplement of paper PMC6045584.
± gives the standard deviation of the averaged measurements.

How the values were obtained:
XAV-939 = compound: Oc1nc(-c2ccc(C(F)(F)F)cc2)nc2c1CSCC2 [XAV-939]; test: surviving fraction relative to DMSO-only wells; higher = less growth inhibition; conditions: exposure time: 5 days
Outline: (§1)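 In 384-well plates, 250–500 log-phase tumour cells per well were given 24 hours before five days of continuous exposure to inhibitors at 0.5, 1, 5, 10, 50, 100, 500 and 1000 nM. Surviving fraction is luminescence from CellTiter-Glo, normalised to the median of wells containing DMSO alone. Reading took place after 10 minutes at room temperature.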

TEMOZOLOMIDE = compound: Cn1nnc2c(C(N)=O)ncn2c1=O [TEMOZOLOMIDE]; test: as above; conditions: exposure time: 5 days
Outline: as §1

SG27 HEADNECK
surviving fraction (XAV-939; 0.5 nM): 1.1 ± 0.076
surviving fraction (XAV-939; 1 nM): 0.993 ± 0.089
surviving fraction (XAV-939; 5 nM): 1 ± 0.058
surviving fraction (XAV-939; 10 nM): 1.02 ± 0.052
surviving fraction (XAV-939; 50 nM): 1.08 ± 0.049
surviving fraction (XAV-939; 100 nM): 0.966 ± 0.081
surviving fraction (XAV-939; 500 nM): 0.825 ± 0.062
surviving fraction (XAV-939; 1000 nM): 0.802 ± 0.11
surviving fraction (TEMOZOLOMIDE; 0.5 nM): 1.13 ± 0.058
surviving fraction (TEMOZOLOMIDE; 1 nM): 1.1 ± 0.11
surviving fraction (TEMOZOLOMIDE; 5 nM): 1.02 ± 0.054
surviving fraction (TEMOZOLOMIDE; 10 nM): 1.09 ± 0.019
surviving fraction (TEMOZOLOMIDE; 50 nM): 1.04 ± 0.061
surviving fraction (TEMOZOLOMIDE; 100 nM): 1.16 ± 0.14
surviving fraction (TEMOZOLOMIDE; 500 nM): 1.22 ± 0.048
surviving fraction (TEMOZOLOMIDE; 1000 nM): 1.21 ± 0.15

SG28 HEADNECK
surviving fraction (XAV-939; 0.5 nM): 1.01 ± 0.11
surviving fraction (XAV-939; 1 nM): 1.11 ± 0.095
surviving fraction (XAV-939; 5 nM): 0.981 ± 0.083
surviving fraction (XAV-939; 10 nM): 0.967 ± 0.11
surviving fraction (XAV-939; 50 nM): 1.02 ± 0.14
surviving fraction (XAV-939; 100 nM): 0.958 ± 0.07
surviving fraction (XAV-939; 500 nM): 0.912 ± 0.075
surviving fraction (XAV-939; 1000 nM): 0.91 ± 0.058
surviving fraction (TEMOZOLOMIDE; 0.5 nM): 1.03 ± 0.044
surviving fraction (TEMOZOLOMIDE; 1 nM): 1.18 ± 0.034
surviving fraction (TEMOZOLOMIDE; 5 nM): 1.04 ± 0.013
surviving fraction (TEMOZOLOMIDE; 10 nM): 1.1 ± 0.021
surviving fraction (TEMOZOLOMIDE; 50 nM): 1.1 ± 0.087
surviving fraction (TEMOZOLOMIDE; 100 nM): 1.05 ± 0.013
surviving fraction (TEMOZOLOMIDE; 500 nM): 1.09 ± 0.14
surviving fraction (TEMOZOLOMIDE; 1000 nM): 1.09 ± 0.048

SG31 HEADNECK
surviving fraction (XAV-939; 0.5 nM): 1.02 ± 0.12
surviving fraction (XAV-939; 1 nM): 1.13 ± 0.1
surviving fraction (XAV-939; 5 nM): 1.12 ± 0.28
surviving fraction (XAV-939; 10 nM): 1.02 ± 0.046
surviving fraction (XAV-939; 50 nM): 0.985 ± 0.021
surviving fraction (XAV-939; 100 nM): 0.853 ± 0.19
surviving fraction (XAV-939; 500 nM): 0.745 ± 0.055
surviving fraction (XAV-939; 1000 nM): 0.747 ± 0.037
surviving fraction (TEMOZOLOMIDE; 0.5 nM): 0.991 ± 0.11
surviving fraction (TEMOZOLOMIDE; 1 nM): 1.07 ± 0.18
surviving fraction (TEMOZOLOMIDE; 5 nM): 1.01 ± 0.15
surviving fraction (TEMOZOLOMIDE; 10 nM): 1.04 ± 0.013
surviving fraction (TEMOZOLOMIDE; 50 nM): 0.922 ± 0.062
surviving fraction (TEMOZOLOMIDE; 100 nM): 1.17 ± 0.52
surviving fraction (TEMOZOLOMIDE; 500 nM): 1.17 ± 0.24
surviving fraction (TEMOZOLOMIDE; 1000 nM): 1.12 ± 0.12

SG32 HEADNECK
surviving fraction (XAV-939; 0.5 nM): 0.996 ± 0.26
surviving fraction (XAV-939; 1 nM): 1.02 ± 0.092
surviving fraction (XAV-939; 5 nM): 1.66 ± 1.1
surviving fraction (XAV-939; 10 nM): 1.13 ± 0.1
surviving fraction (XAV-939; 50 nM): 1.02 ± 0.12
surviving fraction (XAV-939; 100 nM): 1.08 ± 0.13
surviving fraction (XAV-939; 500 nM): 0.721 ± 0.17
surviving fraction (XAV-939; 1000 nM): 0.603 ± 0.034
surviving fraction (TEMOZOLOMIDE; 0.5 nM): 1.14 ± 0.019
surviving fraction (TEMOZOLOMIDE; 1 nM): 1.44 ± 0.39
surviving fraction (TEMOZOLOMIDE; 5 nM): 1.19 ± 0.12
surviving fraction (TEMOZOLOMIDE; 10 nM): 1.37 ± 0.22
surviving fraction (TEMOZOLOMIDE; 50 nM): 1.26 ± 0.071
surviving fraction (TEMOZOLOMIDE; 100 nM): 1.13 ± 0.097
surviving fraction (TEMOZOLOMIDE; 500 nM): 1.2 ± 0.18
surviving fraction (TEMOZOLOMIDE; 1000 nM): 1.67 ± 0.62

SG43 HEADNECK
surviving fraction (XAV-939; 0.5 nM): 1.07 ± 0.11
surviving fraction (XAV-939; 1 nM): 1.03 ± 0.07
surviving fraction (XAV-939; 5 nM): 0.909 ± 0.17
surviving fraction (XAV-939; 10 nM): 0.806 ± 0.26
surviving fraction (XAV-939; 50 nM): 0.744 ± 0.04
surviving fraction (XAV-939; 100 nM): 0.878 ± 0.17
surviving fraction (XAV-939; 500 nM): 0.9 ± 0.068
surviving fraction (XAV-939; 1000 nM): 0.761 ± 0.081
surviving fraction (TEMOZOLOMIDE; 0.5 nM): 1.11 ± 0.065
surviving fraction (TEMOZOLOMIDE; 1 nM): 0.96 ± 0.1
surviving fraction (TEMOZOLOMIDE; 5 nM): 0.768 ± 0.047
surviving fraction (TEMOZOLOMIDE; 10 nM): 0.882 ± 0.087
surviving fraction (TEMOZOLOMIDE; 50 nM): 0.742 ± 0.18
surviving fraction (TEMOZOLOMIDE; 100 nM): 0.895 ± 0.24
surviving fraction (TEMOZOLOMIDE; 500 nM): 0.895 ± 0.11
surviving fraction (TEMOZOLOMIDE; 1000 nM): 1.14 ± 0.46

SIHA CERVIX
surviving fraction (XAV-939; 0.5 nM): 1.02 ± 0.045
surviving fraction (XAV-939; 1 nM): 1.05 ± 0.067
surviving fraction (XAV-939; 5 nM): 1.05 ± 0.084
surviving fraction (XAV-939; 10 nM): 1.16 ± 0.13
surviving fraction (XAV-939; 50 nM): 1.1 ± 0.044
surviving fraction (XAV-939; 100 nM): 1.19 ± 0.025
surviving fraction (XAV-939; 500 nM): 1 ± 0.063
surviving fraction (XAV-939; 1000 nM): 0.974 ± 0.046
surviving fraction (TEMOZOLOMIDE; 0.5 nM): 0.992 ± 0.024
surviving fraction (TEMOZOLOMIDE; 1 nM): 0.996 ± 0.072
surviving fraction (TEMOZOLOMIDE; 5 nM): 0.99 ± 0.06
surviving fraction (TEMOZOLOMIDE; 10 nM): 1.06 ± 0.076
surviving fraction (TEMOZOLOMIDE; 50 nM): 1.02 ± 0.021
surviving fraction (TEMOZOLOMIDE; 100 nM): 1.06 ± 0.039
surviving fraction (TEMOZOLOMIDE; 500 nM): 0.968 ± 0.044
surviving fraction (TEMOZOLOMIDE; 1000 nM): 1.02 ± 0.028

SJSA1 BONE
surviving fraction (XAV-939; 0.5 nM): 1.1 ± 0.061
surviving fraction (XAV-939; 1 nM): 1.04 ± 0.053
surviving fraction (XAV-939; 5 nM): 1.06 ± 0.037
surviving fraction (XAV-939; 10 nM): 1.12 ± 0.055
surviving fraction (XAV-939; 50 nM): 1.16 ± 0.06
surviving fraction (XAV-939; 100 nM): 1.18 ± 0.037
surviving fraction (XAV-939; 500 nM): 1.07 ± 0.071
surviving fraction (XAV-939; 1000 nM): 1.08 ± 0.014
surviving fraction (TEMOZOLOMIDE; 0.5 nM): 0.368 ± 0.017
surviving fraction (TEMOZOLOMIDE; 1 nM): 1.72 ± 0.054
surviving fraction (TEMOZOLOMIDE; 5 nM): 1.64 ± 0.088
surviving fraction (TEMOZOLOMIDE; 10 nM): 1.5 ± 0.13
surviving fraction (TEMOZOLOMIDE; 50 nM): 1.69 ± 0.041
surviving fraction (TEMOZOLOMIDE; 100 nM): 1.64 ± 0.077
surviving fraction (TEMOZOLOMIDE; 500 nM): 1.66 ± 0.084
surviving fraction (TEMOZOLOMIDE; 1000 nM): 1.7 ± 0.11

SKBR3 BREAST
surviving fraction (XAV-939; 0.5 nM): 1.07 ± 0.17
surviving fraction (XAV-939; 1 nM): 0.943 ± 0.089
surviving fraction (XAV-939; 5 nM): 1.04 ± 0.16
surviving fraction (XAV-939; 10 nM): 0.898 ± 0.054
surviving fraction (XAV-939; 50 nM): 1.11 ± 0.065
surviving fraction (XAV-939; 100 nM): 1.02 ± 0.1
surviving fraction (XAV-939; 500 nM): 0.854 ± 0.14
surviving fraction (XAV-939; 1000 nM): 0.772 ± 0.053
surviving fraction (TEMOZOLOMIDE; 0.5 nM): 1.1 ± 0.052
surviving fraction (TEMOZOLOMIDE; 1 nM): 1.11 ± 0.058
surviving fraction (TEMOZOLOMIDE; 5 nM): 1.06 ± 0.082
surviving fraction (TEMOZOLOMIDE; 10 nM): 1.06 ± 0.069
surviving fraction (TEMOZOLOMIDE; 50 nM): 0.983 ± 0.061
surviving fraction (TEMOZOLOMIDE; 100 nM): 1.07 ± 0.13
surviving fraction (TEMOZOLOMIDE; 500 nM): 1.13 ± 0.04
surviving fraction (TEMOZOLOMIDE; 1000 nM): 1.07 ± 0.055

SNU475 LIVER
surviving fraction (XAV-939; 0.5 nM): 0.936 ± 0.035
surviving fraction (XAV-939; 1 nM): 0.976 ± 0.033
surviving fraction (XAV-939; 5 nM): 0.891 ± 0.18
surviving fraction (XAV-939; 10 nM): 1.02 ± 0.018
surviving fraction (XAV-939; 50 nM): 0.952 ± 0.011
surviving fraction (XAV-939; 100 nM): 0.965 ± 0.033
surviving fraction (XAV-939; 500 nM): 0.713 ± 0.068
surviving fraction (XAV-939; 1000 nM): 0.59 ± 0.027
surviving fraction (TEMOZOLOMIDE; 0.5 nM): 1.004 ± 0.0081
surviving fraction (TEMOZOLOMIDE; 1 nM): 1.01 ± 0.025
surviving fraction (TEMOZOLOMIDE; 5 nM): 1.01 ± 0.051
surviving fraction (TEMOZOLOMIDE; 10 nM): 1.04 ± 0.036
surviving fraction (TEMOZOLOMIDE; 50 nM): 1.01 ± 0.034
surviving fraction (TEMOZOLOMIDE; 100 nM): 1.06 ± 0.047
surviving fraction (TEMOZOLOMIDE; 500 nM): 1.05 ± 0.053
surviving fraction (TEMOZOLOMIDE; 1000 nM): 1.03 ± 0.022

SUM44 BREAST
surviving fraction (XAV-939; 0.5 nM): 1.02 ± 0.059
surviving fraction (XAV-939; 1 nM): 1.05 ± 0.051
surviving fraction (XAV-939; 5 nM): 1.05 ± 0.02
surviving fraction (XAV-939; 10 nM): 1.06 ± 0.044
surviving fraction (XAV-939; 50 nM): 1.08 ± 0.045
surviving fraction (XAV-939; 100 nM): 1.1 ± 0.025
surviving fraction (XAV-939; 500 nM): 1.07 ± 0.023
surviving fraction (XAV-939; 1000 nM): 1.12 ± 0.06
surviving fraction (TEMOZOLOMIDE; 0.5 nM): 1.16 ± 0.26
surviving fraction (TEMOZOLOMIDE; 1 nM): 1.19 ± 0.22
surviving fraction (TEMOZOLOMIDE; 5 nM): 1.24 ± 0.23
surviving fraction (TEMOZOLOMIDE; 10 nM): 1.33 ± 0.5
surviving fraction (TEMOZOLOMIDE; 50 nM): 1.19 ± 0.21
surviving fraction (TEMOZOLOMIDE; 100 nM): 1.32 ± 0.33
surviving fraction (TEMOZOLOMIDE; 500 nM): 1.3 ± 0.28
surviving fraction (TEMOZOLOMIDE; 1000 nM): 1.3 ± 0.26
